Experiment [1] deals with KIBRA with novel PKCs (PKCδ, PKCε, PKCη, PKCθ). In words: BiFC assay of KIBRA with novel PKCs in HEK293T cells. The class given is cell-based, human. The protocol: KIBRA-PKMζ BiFC was performed as previously described (28), using pVen1-FLAG-KIBRA and pVen2-HA-PKMζ, in which PKMζ was cloned between EcoR1 and BamH1 sites. The constructs pVen1 and pVen2 encode the N-terminus (amino acids 1-154) and C-terminus (amino acids 155-238) of the Venus protein, respectively, and the Venus fragments were on the N-terminal of the fusion proteins. pVen2-HA-PKMζ[PKCι/λ-P291Q;F297S] was generated by site-directed mutagenesis using forward-cctggagAagcAAatceggatcccccggtCcctgtccgte and reverse-gacggacaggGaccgggggatccggatTTgctTctccagg primers and the QuickChange II XL Site-Directed Mutagenesis Kit (Agilent Technologies), following manufacturer's instructions. Additional pVen2-HA-PKC isoforms and pVen2-HA-CaMKIIα in the pVen2-HA vector were generated by cloning the N-terminus of the coding sequence of each kinase (table S1) to obtain an in-frame fusion at the C-terminus of the pVen2-HA. Human versions of KIBRA and kinases were used, and all PCR amplified sequences and constructs were verified by DNA sequencing.
HEK293T cells were cultured in Dulbecco's Modified Eagle's Medium supplemented with 10% heat-inactivated fetal bovine serum, 100 U/ml penicillin, […] streptomycin, 2 mM glutamine, and 10 mM HEPES in a T75 tissue culture flask with canted neck and ventilated cap. […]

In experiment [2] the test system is auditory-cued fear/threat memory. In words: Auditory-cued fear/threat conditioning, infusion into basolateral amygdala, wild-type mice. The class given is in vivo, mouse. To be noted: 6 nmol in 0.3 μL into each BLA, tested 1 day post-injection. The protocol:
Mice were 8-10 weeks old at the time of cannulation and 9-11 weeks old at the beginning of behavioral experiments. Mice were housed with cage-mates in plastic cages and provided with food and water ad libitum. Mice were maintained on a 12 h light/dark cycle (lights on at 7:00 am) and behavioral experiments began at 9:00 am.
Mice were injected intraperitoneally (1 ml/100 g body weight) with an anesthetic cocktail containing ketamine (10 mg/ml) and xylazine (2 mg/ml). Mice were provided with analgesic treatment prior to surgery (carprofen; 5 mg/ml). Guide cannulae (Plastics One, Roanoke, VA) were implanted bilaterally in the basolateral amygdala (from bregma: AP-1.7 mm; L+/−3.0 mm; DV-4.4 mm) and secured to the skull with three jeweler's screws and dental cement. Antisedan (0.66 ml/100 g body weight of 0.5 mg drug/ml solution) was given via i.p. injection after surgery to reverse the anesthesia.
For 7 days following surgery, mice were handled by freely exploring the experimenter's palm for 2-5 min. Mice were habituated, trained, and tested in the same conditioning box (Coulbourn Habitest, Coulboum Instruments) with differing floors and walls to produce two different contexts (Context A and Context B). […] Freezing behavior (cessation of all movement except breathing) during the tone on Test 1 and Test 2 was scored by an experimenter blind to the conditions. […]

On to `O=S(=O)(O)c1cc(O)c2c(S(=O)(=O)O)cc(S(=O)(=O)O)cc2c1` [ζ-stat, 1-naphthol-3,6,8-trisulphonic acid], for which the “effect on BiFC of KIBRA with novel PKCs” value in experiment [1] is “has no effect”. Moreover, the “auditory-cued fear/threat memory retention (% time freezing to tone)” value is listed as “impairs memory retention” in experiment [2] and “disrupts fear/threat memory retention” in experiment [2] (listed as z-stat).

Values taken from US20250154212A1, “METHOD OF DISRUPTING MEMORY AND LIPOPEPTIDE FOR USE IN SUCH METHOD” (The Research Foundation for The State University of New York, priority 2023, published 2025).
